Results: ChEMBL document CHEMBL3132769, “Fragment growing to retain or alter the selectivity of anchored kinase hinge-binding fragments” (Medchemcomm, 2014)

Assays:
[1] = molecular target: Tyrosine-protein kinase Fyn (Homo sapiens) (UniProt P06241); assay: Inhibition of human full length FYN expressed in baculovirus assessed as substrate phosphorylation using fluorescence-labelled peptides as substrate at 8 uM after 90 mins by microfluidic peptide phosphorylation assay
[2] = molecular target: Tyrosine-protein kinase ABL2 (Homo sapiens) (UniProt P42684); assay: Inhibition of human truncated Arg expressed in baculovirus assessed as substrate phosphorylation using fluorescence-labelled peptides as substrate at 2 uM after 90 mins by microfluidic peptide phosphorylation assay
[3] = molecular target: T1, Aurora kinase C (Homo sapiens) (UniProt Q9UQB9); assay: Inhibition of human full length AurC expressed in baculovirus assessed as substrate phosphorylation using fluorescence-labelled peptides as substrate at 2 uM after 90 mins by microfluidic peptide phosphorylation assay
T1 sequence (whole entry): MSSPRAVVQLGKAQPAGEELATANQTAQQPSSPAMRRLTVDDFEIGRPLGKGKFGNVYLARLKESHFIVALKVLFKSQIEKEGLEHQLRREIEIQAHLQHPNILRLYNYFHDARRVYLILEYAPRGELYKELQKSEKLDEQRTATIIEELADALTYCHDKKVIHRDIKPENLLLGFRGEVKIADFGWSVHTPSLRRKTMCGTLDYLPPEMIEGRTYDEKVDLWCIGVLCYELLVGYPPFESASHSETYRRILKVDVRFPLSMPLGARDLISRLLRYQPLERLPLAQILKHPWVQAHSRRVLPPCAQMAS

[4] = molecular target: Serine/threonine-protein kinase Chk2 (Homo sapiens) (UniProt O96017); assay: Inhibition of human full length CHK2 expressed in baculovirus assessed as substrate phosphorylation using fluorescence-labelled peptides as substrate at 1000 uM after 90 mins by microfluidic peptide phosphorylation assay
[5] = molecular target: MAP/microtubule affinity-regulating kinase 3 (Homo sapiens) (UniProt P27448); assay: Inhibition of human full length c-TAK1 expressed in Escherichia coli cell assessed as substrate phosphorylation using fluorescence-labelled peptides as substrate at 1000 uM after 90 mins by microfluidic peptide phosphorylation assay
[6] = molecular target: Tyrosine-protein kinase ABL2 (Homo sapiens) (UniProt P42684); assay: Inhibition of human truncated Arg expressed in baculovirus assessed as substrate phosphorylation using fluorescence-labelled peptides as substrate at 0.06 uM after 90 mins by microfluidic peptide phosphorylation assay
[7] = molecular target: T2, Testis-specific serine/threonine-protein kinase 1 (Homo sapiens) (UniProt Q9BXA7); assay: Inhibition of human full length TSSK1 expressed in baculovirus assessed as substrate phosphorylation using fluorescence-labelled peptides as substrate at 9 uM after 90 mins by microfluidic peptide phosphorylation assay
T2 sequence (whole entry): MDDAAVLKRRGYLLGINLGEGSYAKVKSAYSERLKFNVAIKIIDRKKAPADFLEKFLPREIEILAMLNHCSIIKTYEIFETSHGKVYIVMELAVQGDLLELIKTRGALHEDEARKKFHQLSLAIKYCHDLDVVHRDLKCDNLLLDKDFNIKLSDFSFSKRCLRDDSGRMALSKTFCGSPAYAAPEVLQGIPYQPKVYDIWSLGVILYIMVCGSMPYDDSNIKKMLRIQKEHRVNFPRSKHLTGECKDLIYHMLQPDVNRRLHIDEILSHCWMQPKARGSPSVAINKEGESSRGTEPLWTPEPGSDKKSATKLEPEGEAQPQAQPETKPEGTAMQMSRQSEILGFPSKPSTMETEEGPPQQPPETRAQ

[8] = molecular target: T3, Serine/threonine-protein kinase D3 (Homo sapiens) (UniProt O94806); assay: Inhibition of human full length PKD3 expressed in baculovirus assessed as substrate phosphorylation using fluorescence-labelled peptides as substrate at 70 uM after 90 mins by microfluidic peptide phosphorylation assay
T3 sequence (whole entry): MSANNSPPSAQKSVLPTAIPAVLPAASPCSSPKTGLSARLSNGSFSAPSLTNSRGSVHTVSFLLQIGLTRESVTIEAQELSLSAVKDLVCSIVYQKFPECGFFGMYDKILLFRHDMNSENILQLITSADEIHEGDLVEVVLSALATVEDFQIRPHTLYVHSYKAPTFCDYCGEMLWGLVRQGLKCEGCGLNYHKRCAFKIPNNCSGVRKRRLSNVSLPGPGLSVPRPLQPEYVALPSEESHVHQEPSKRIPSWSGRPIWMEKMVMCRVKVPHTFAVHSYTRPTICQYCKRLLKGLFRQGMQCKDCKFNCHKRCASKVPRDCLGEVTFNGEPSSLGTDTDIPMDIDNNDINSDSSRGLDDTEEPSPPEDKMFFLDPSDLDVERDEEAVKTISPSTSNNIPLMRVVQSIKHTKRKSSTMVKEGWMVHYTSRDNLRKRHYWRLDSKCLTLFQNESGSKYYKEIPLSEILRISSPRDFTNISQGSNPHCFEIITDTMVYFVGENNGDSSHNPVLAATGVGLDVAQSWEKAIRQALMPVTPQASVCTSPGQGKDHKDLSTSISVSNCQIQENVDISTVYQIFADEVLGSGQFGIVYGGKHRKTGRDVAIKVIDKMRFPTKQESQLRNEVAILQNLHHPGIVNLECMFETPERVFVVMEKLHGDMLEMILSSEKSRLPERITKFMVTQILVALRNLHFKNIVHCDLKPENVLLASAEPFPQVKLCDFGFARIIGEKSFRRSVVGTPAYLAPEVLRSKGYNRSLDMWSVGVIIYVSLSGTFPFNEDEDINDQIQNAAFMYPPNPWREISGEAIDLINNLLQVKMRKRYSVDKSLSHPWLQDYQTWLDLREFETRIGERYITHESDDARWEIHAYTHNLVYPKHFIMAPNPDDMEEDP

[9] = molecular target: Serine/threonine-protein kinase MARK1 (Homo sapiens) (UniProt Q9P0L2); assay: Inhibition of human full length MARK1 expressed in baculovirus assessed as substrate phosphorylation using fluorescence-labelled peptides as substrate at 70 uM after 90 mins by microfluidic peptide phosphorylation assay
Chain of Serine/threonine-protein kinase MARK1 (Homo sapiens) (Q9P0L2 whole entry, looked up): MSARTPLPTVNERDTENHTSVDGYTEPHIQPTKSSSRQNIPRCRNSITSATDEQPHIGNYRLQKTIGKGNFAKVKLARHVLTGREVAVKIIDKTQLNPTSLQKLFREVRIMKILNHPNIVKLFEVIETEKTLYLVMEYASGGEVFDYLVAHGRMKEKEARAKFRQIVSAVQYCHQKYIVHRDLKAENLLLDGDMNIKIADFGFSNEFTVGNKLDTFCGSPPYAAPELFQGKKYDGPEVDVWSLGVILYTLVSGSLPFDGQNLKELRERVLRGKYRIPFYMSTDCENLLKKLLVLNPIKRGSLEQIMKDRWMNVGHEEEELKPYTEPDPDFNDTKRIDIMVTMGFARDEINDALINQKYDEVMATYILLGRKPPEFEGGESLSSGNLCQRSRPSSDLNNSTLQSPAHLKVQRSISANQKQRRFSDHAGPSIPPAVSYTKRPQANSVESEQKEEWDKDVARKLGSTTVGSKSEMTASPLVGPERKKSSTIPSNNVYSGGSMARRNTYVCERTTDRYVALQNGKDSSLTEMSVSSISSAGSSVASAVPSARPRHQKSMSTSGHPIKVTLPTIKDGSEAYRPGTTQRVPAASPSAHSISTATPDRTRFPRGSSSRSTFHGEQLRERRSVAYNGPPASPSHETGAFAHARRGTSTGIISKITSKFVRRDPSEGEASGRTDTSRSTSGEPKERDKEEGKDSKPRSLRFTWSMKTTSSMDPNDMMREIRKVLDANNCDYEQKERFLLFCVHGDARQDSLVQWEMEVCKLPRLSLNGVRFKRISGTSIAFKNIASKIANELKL

Chain of Tyrosine-protein kinase ABL2 (Homo sapiens) (P42684 whole entry, the tested form may be a part): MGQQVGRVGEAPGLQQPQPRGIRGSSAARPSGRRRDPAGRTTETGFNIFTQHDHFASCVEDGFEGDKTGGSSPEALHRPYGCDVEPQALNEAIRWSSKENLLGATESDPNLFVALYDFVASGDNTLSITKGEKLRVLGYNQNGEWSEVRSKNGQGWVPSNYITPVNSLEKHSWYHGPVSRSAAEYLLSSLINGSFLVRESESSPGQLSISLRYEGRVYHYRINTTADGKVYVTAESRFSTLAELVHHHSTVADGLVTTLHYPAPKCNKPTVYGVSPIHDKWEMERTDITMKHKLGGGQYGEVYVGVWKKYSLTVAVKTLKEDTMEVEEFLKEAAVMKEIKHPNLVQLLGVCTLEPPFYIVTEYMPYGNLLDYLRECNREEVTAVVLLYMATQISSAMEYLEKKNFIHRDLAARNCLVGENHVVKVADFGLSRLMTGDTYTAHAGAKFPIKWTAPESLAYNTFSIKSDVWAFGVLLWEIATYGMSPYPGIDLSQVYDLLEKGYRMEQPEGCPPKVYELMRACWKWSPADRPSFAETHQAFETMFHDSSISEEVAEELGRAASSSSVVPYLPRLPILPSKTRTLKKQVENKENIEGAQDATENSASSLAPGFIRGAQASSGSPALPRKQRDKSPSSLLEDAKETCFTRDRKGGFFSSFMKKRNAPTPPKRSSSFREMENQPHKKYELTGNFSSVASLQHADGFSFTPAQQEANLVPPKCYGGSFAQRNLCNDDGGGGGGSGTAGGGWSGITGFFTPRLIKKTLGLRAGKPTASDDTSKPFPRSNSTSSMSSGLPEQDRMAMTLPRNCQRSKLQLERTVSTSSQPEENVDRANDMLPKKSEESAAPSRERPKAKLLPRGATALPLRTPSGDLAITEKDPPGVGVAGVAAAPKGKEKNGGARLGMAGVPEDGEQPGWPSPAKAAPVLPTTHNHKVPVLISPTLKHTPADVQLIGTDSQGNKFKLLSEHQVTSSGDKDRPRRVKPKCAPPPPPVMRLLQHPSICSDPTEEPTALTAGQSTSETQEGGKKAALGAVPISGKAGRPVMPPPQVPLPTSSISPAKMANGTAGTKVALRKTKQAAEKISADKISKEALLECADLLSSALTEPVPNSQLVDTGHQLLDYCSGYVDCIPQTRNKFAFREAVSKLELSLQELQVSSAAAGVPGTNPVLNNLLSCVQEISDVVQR
Chain of MAP/microtubule affinity-regulating kinase 3 (Homo sapiens) (P27448 whole entry, looked up, the tested form may be a part): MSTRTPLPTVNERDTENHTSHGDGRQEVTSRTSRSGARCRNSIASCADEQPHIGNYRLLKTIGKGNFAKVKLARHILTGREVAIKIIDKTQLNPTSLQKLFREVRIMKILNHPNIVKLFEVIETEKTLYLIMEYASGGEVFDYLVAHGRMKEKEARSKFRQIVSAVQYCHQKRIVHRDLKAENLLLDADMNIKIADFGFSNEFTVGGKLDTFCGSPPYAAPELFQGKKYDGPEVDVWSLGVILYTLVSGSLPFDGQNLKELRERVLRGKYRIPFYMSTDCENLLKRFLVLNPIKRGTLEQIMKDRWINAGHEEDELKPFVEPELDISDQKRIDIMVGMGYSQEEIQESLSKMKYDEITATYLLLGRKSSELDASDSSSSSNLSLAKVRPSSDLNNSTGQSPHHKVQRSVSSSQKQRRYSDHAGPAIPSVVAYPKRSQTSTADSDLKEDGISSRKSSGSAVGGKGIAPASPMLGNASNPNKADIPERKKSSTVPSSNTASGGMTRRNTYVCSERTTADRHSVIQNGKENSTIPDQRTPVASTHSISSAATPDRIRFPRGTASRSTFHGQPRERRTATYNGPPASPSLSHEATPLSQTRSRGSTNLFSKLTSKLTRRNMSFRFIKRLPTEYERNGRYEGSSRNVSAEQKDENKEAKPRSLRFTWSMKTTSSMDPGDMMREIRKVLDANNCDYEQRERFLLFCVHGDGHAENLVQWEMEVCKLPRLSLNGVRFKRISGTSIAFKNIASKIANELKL
Chain of Serine/threonine-protein kinase Chk2 (Homo sapiens) (O96017 whole entry): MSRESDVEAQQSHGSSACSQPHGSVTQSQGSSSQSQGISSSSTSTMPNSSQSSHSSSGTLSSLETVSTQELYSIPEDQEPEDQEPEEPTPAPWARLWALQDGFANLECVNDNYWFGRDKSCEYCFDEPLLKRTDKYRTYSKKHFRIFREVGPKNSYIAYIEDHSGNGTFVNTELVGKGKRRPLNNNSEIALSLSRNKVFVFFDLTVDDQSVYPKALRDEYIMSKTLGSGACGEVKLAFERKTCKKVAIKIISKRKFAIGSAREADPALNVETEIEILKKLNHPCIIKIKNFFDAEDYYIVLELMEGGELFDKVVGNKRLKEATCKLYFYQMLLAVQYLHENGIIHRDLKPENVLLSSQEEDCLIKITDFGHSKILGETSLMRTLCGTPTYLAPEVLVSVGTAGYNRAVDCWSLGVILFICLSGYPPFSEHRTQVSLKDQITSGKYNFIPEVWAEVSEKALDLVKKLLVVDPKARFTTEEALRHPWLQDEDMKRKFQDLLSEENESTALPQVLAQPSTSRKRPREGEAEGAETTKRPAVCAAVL
Chain of Tyrosine-protein kinase Fyn (Homo sapiens) (P06241 2-537 limits assumed): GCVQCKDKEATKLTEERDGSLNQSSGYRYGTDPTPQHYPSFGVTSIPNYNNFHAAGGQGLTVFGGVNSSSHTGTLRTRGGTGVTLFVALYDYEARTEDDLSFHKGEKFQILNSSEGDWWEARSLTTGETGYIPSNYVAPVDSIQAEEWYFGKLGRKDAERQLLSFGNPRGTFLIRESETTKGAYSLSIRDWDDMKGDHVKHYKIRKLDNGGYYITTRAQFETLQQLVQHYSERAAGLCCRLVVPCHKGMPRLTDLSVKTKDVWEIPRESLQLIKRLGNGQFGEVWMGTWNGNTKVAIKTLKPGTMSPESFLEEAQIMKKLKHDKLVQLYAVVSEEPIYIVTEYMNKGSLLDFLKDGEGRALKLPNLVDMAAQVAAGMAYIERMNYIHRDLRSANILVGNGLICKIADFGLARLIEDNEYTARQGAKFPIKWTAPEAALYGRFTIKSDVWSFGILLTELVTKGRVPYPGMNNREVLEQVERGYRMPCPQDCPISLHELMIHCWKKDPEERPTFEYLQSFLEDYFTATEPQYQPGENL

NCC1CCN(c2ncnc3[nH]ccc23)CC1
inhibition [1]: 1%

NC1CCN(c2ncnc3[nH]ccc23)CC1
inhibition [2]: 7.5% | inhibition [3]: 13.5%

c1cnc2[nH]ccc2c1
inhibition [4]: 74% | inhibition [5]: 77%

NC1(Cc2ccc(Cl)cc2)CCN(c2ncnc3[nH]ccc23)CC1
inhibition [6]: 5%

NCC1CN(c2ncnc3[nH]c4cnccc4c23)CCO1 (centres undefined)
inhibition [7]: 41.5%

CNCc1ccc(-c2ncnc3[nH]cnc23)cc1
inhibition [8]: 72.5% | inhibition [9]: 52%
